According to ChEMBL document CHEMBL4673296 (J Med Chem, 2020):
Values belong to the compound of their own block, whether it stands above or below them. The source made the active and inactive calls. The rule behind the calls is not given here.

How the values were obtained:
[1] = Apparent permeability of the compound across basolateral side to apical side in human Caco2 cells; format: ADME, cell-based; settings: Caco-2
[2] = Apparent permeability of the compound across apical side to basolateral side in human Caco2 cells; format: ADME, cell-based; settings: Caco-2
[3] = molecular target: T1, Serine/threonine-protein kinase ULK1 (Homo sapiens, UniProt O75385); experiment: Inhibition of ULK1 (unknown origin) expressed in HEK293T cells incubated for 2 hrs by NanoBRET assay; format: cell-based
T1 sequence (O75385 whole entry): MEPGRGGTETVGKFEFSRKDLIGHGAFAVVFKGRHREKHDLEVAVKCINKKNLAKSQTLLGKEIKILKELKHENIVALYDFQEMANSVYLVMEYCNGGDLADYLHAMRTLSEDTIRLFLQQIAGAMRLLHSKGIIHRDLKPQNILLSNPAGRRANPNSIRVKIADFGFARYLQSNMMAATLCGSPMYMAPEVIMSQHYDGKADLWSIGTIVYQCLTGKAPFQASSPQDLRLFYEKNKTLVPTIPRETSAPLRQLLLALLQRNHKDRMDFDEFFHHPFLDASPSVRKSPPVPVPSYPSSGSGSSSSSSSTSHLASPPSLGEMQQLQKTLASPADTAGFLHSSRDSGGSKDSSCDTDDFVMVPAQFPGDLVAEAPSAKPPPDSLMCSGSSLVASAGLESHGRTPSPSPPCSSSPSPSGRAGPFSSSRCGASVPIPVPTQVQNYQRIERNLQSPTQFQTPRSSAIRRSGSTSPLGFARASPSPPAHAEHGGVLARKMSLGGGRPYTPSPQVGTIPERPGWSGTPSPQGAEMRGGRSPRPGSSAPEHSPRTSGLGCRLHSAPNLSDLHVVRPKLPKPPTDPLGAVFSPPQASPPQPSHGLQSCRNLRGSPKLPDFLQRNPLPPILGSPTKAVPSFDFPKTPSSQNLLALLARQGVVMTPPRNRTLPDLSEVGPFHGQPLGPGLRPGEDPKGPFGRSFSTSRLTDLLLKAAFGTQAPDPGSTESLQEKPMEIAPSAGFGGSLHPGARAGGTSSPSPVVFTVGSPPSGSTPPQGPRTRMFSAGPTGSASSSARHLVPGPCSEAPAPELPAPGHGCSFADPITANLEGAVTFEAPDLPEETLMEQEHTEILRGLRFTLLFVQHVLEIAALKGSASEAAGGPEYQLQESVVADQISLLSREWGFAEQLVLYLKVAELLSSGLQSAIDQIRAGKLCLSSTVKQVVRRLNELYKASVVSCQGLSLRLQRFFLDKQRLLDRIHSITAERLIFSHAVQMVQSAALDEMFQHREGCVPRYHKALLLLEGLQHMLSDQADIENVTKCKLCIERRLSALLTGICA

[4] = molecular target: T1, Serine/threonine-protein kinase ULK1; experiment: Inhibition of recombinant human ULK1 (1-649) expressed in Sf9 cells using myelin basic protein as substrate by ADP-glo assay
[5] = Efflux ratio of apparent permeability from basolateral side to apical side over apical side to basolateral side in human Caco2 cells; format: ADME, cell-based; settings: Caco-2
[6] = molecular target: T2, Serine/threonine-protein kinase ULK1 (Homo sapiens) (UniProt O75385); experiment: Inhibition of Myc-tagged ULK1 (unknown origin) expressed in HEK293T cells cotransfected with wild-type Flag tagged Beclin-1 assessed as decrease in pBeclin1 Ser15 at 10 uM measured after 1 hr by Western blot analysis; format: cell-based
T2 sequence (whole entry): T1 sequence (O75385 whole entry)

[7] = molecular target: T2, Serine/threonine-protein kinase ULK1 (Homo sapiens); experiment: Inhibition of Myc-tagged ULK1 (unknown origin) expressed in HEK293T cells cotransfected with wild-type Flag tagged Vps34 assessed as decrease in pVPS34 Ser249 at 10 uM measured after 1 hr by Western blot analysis relative to control; format: cell-based
[8] = molecular target: T3, Serine/threonine-protein kinase ULK2 (Homo sapiens, UniProt Q8IYT8); experiment: Inhibition of recombinant human ULK2 (1 to 478 residues) expressed in Sf9 cells using myelin basic protein as substrate by ADP-glo assay
T3 sequence (Q8IYT8 whole entry): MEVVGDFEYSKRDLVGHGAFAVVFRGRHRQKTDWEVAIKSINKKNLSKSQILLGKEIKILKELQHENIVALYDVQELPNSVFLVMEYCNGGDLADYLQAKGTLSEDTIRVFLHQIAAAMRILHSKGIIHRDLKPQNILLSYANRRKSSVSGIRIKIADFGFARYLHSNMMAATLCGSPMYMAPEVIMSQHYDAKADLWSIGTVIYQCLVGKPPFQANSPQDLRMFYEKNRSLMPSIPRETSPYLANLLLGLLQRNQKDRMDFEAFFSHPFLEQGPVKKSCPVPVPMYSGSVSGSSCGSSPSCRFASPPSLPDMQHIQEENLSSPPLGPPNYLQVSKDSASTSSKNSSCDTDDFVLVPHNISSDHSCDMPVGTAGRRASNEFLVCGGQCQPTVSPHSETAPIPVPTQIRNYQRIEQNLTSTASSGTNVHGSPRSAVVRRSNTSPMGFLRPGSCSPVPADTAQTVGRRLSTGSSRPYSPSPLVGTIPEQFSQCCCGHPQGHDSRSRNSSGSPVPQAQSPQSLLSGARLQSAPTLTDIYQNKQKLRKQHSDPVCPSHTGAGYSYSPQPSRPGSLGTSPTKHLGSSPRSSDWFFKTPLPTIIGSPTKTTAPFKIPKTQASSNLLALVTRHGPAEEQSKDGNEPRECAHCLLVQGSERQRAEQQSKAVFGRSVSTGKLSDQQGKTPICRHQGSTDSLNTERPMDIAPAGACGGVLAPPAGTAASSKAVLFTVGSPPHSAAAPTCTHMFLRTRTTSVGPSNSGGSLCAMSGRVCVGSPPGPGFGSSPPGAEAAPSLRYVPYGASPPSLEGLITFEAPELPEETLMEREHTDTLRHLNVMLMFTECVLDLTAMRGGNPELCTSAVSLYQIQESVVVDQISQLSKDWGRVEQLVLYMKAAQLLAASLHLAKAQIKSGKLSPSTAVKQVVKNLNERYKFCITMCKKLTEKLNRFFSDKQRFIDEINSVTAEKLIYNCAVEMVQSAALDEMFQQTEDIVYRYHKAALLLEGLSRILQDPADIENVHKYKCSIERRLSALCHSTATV

[9] = molecular target: T3, Serine/threonine-protein kinase ULK2; experiment: Inhibition of ULK2 (unknown origin) expressed in HEK293T cells incubated for 2 hrs by NanoBRET assay; format: cell-based
[10] = Inhibition of starvation-induced autophagic flux in human MDA-MB-468 cells expressing tandem-labelled mCherryEGFP-LC3 chimeric protein at 10 uM measured after 18 hrs in EBSS media by flow cytometry (Rvb >90%); format: functional
MDA-MB-468 [11] = experiment: Reduction in autophagosome accumulation in human MDA-MB-468 cells at 10 uM by transmission electron microscopic analysis; format: functional, cell-based
MDA-MB-468 [12] = experiment: cells; settings: Homo sapiens, MDA-MB-468, 72 h
Description: Cytotoxicity against human MDA-MB-468 cells measured after 72 hrs by Celltiter-Glo assay

Structure (SMILES): Oc1ccccc1Nc1ncc(C(F)(F)F)c(NC2CC2)n1
- Papp B→A [1]: > 10 ×10⁻⁶ cm/s
- Papp A→B [2]: > 10 ×10⁻⁶ cm/s

Structure (SMILES): O=C1CCCc2cc(Nc3ncc(C(F)(F)F)c(NC4CC4)n3)ccc21
- IC50 [3]: 1360 nM
- IC50 [4]: 3 nM

Structure (SMILES): Nc1nc(Nc2ccc3c(c2)OCO3)ncc1C(F)(F)F
- IC50 [3]: > 10000 nM
- IC50 [4]: 230 nM

Structure (SMILES): FC(F)(F)c1cnc(Nc2ccc3c(c2)OCCO3)nc1NC1CC1
- IC50 [3]: 4480 nM
- IC50 [4]: 14 nM

Structure (SMILES): CNc1nc(Nc2cnc3[nH]ccc3c2)ncc1C(F)(F)F
- IC50 [3]: 3630 nM
- IC50 [4]: 34 nM

Structure (SMILES): FC(F)(F)c1cnc(Nc2ccc3ncoc3c2)nc1NC1CC1
- inhibition [6]: Active
- inhibition [7]: 70%
- IC50 [8]: 1190 nM
- Papp B→A [1]: > 10 ×10⁻⁶ cm/s
- IC50 [3]: 1020 nM
- IC50 [9]: 4260 nM
- Papp A→B [2]: > 10 ×10⁻⁶ cm/s
- IC50 [4]: 19 nM
- efflux ratio [5]: < 2

Structure (SMILES): CNC(=O)c1ccccc1Oc1nc(Nc2cc(OC)c(OC)c(OC)c2)ncc1Br
- inhibition at 10 µM [10]: 10%
- IC50 [8]: 2450 nM
- IC50 [9]: 4580 nM
- inhibition (MDA-MB-468 [11]): Active

Structure (SMILES): O=C(Nc1ccc(Nc2ncc(C(F)(F)F)c(NC3CC3)n2)cc1)C1CC1
- IC50 [3]: 1330 nM
- IC50 [4]: 13 nM

Structure (SMILES): FC(F)(F)c1cnc(Nc2ccnnc2)nc1NC1CC1
- IC50 [3]: 1610 nM
- IC50 [4]: 40 nM

Structure (SMILES): FC(F)(F)c1cnc(Nc2ccc3ncccc3c2)nc1NC1CC1
- inhibition [6]: Active
- inhibition [7]: 70%
- IC50 [8]: 714 nM
- Papp B→A [1]: > 10 ×10⁻⁶ cm/s
- IC50 [3]: 739 nM
- IC50 [9]: 1650 nM
- Papp A→B [2]: > 10 ×10⁻⁶ cm/s
- IC50 [4]: 5 nM
- efflux ratio [5]: < 2

The remaining lines, values ahead:

- IC50 [3]: > 10000 nM
- IC50 [4]: 17 nM
Structure (SMILES): FC(F)(F)c1cnc(Nc2cnc3[nH]ccc3c2)nc1NC1CCC1

- IC50 [3]: > 10000 nM
- IC50 [4]: 42 nM
Structure (SMILES): FC1(F)Oc2ccc(Nc3ncc(C(F)(F)F)c(NC4CC4)n3)cc2O1

- IC50 [3]: 1710 nM
- IC50 [4]: 30 nM
Structure (SMILES): O=C(C1CC1)N(C(=O)C1CC1)c1ccc(Nc2ncc(C(F)(F)F)c(NC3CC3)n2)cc1

- IC50 [3]: 1170 nM
- IC50 [4]: 6 nM
Structure (SMILES): FC(F)(F)c1cnc(Nc2ccc3nn[nH]c3c2)nc1NC1CC1

- IC50 [3]: 9840 nM
- IC50 [4]: 23 nM
Structure (SMILES): FC(F)(F)c1cnc(Nc2ccc3[nH]ccc3c2)nc1NC1CC1

- Papp B→A [1]: > 10 ×10⁻⁶ cm/s
- IC50 [3]: 1600 nM
- Papp A→B [2]: > 10 ×10⁻⁶ cm/s
- IC50 [4]: 7 nM
- efflux ratio [5]: < 2
Structure (SMILES): FC(F)(F)c1cnc(Nc2ccc3c(c2)OCCCO3)nc1NC1CC1

- inhibition [6]: Active
- inhibition [7]: 70%
- IC50 [8]: 695 nM
- Papp B→A [1]: > 10 ×10⁻⁶ cm/s
- IC50 [9]: 1890 nM
- Papp A→B [2]: > 10 ×10⁻⁶ cm/s
Structure (SMILES): COc1cncc(Nc2ncc(C(F)(F)F)c(NC3CC3)n2)c1

- inhibition [6]: Active
- inhibition [7]: 70%
- IC50 [8]: 1330 nM
- Papp B→A [1]: > 10 ×10⁻⁶ cm/s
- IC50 [3]: 679 nM
- IC50 [9]: 1690 nM
- Papp A→B [2]: > 10 ×10⁻⁶ cm/s
- IC50 [4]: 20 nM
- efflux ratio [5]: < 2
Structure (SMILES): Nc1ccc(Nc2ncc(C(F)(F)F)c(NC3CC3)n2)cc1

- IC50 [3]: 1210 nM
- IC50 [4]: 31 nM
Structure (SMILES): CCN1CCOc2cc(Nc3ncc(C(F)(F)F)c(NC4CC4)n3)cnc21

- IC50 [3]: 1930 nM
- IC50 [4]: 29 nM
Structure (SMILES): FC(F)(F)c1cnc(Nc2cnc3[nH]ccc3c2)nc1NC1CC1

- IC50 [3]: > 10000 nM
- IC50 [4]: 21 nM
Structure (SMILES): FC(F)(F)c1cnc(Nc2ccc3c(c2)OCO3)nc1NC1CC1

- inhibition [6]: Active
- inhibition [7]: 70%
- IC50 [8]: 720 nM
- Papp B→A [1]: > 10 ×10⁻⁶ cm/s
- IC50 [9]: 703 nM
- Papp A→B [2]: > 10 ×10⁻⁶ cm/s
Structure (SMILES): FC(F)(F)c1cnc(Nc2ccc3nc[nH]c3c2)nc1NC1CC1

- IC50 [3]: > 10000 nM
- IC50 [4]: 16 nM
Structure (SMILES): FC(F)(F)c1cnc(Nc2cnc3ccccc3c2)nc1NC1CC1

- IC50 (MDA-MB-468 [12]): 7600 nM
Structure (SMILES): NC(=O)c1cccc2cn(-c3ccc([C@@H]4CCCNC4)cc3)nc12 [NIRAPARIB]
